# Tests used:
# male ICR mice [1] = experiment: Spatial working memory, modified Y-maze, scopolamine-induced amnesia; assay type: in vivo, mouse; settings: for Percentage of unfamiliar arm exploration: n = 5
# Procedure: (§1) The experimental protocols were submitted and approved by the Bioethics Committee of the Faculty of Medicine and Psychology, Autonomous University of Baja California University, Tijuana, México (Record No. 666/2021-2). To perform the in vivo cognitive test experiments, male ICR mice eight weeks of age were used. The animals were housed with access to water and food under a 12 h light and dark cycle, with controlled temperature and humidity.
# (§2) To carry out the cognition experiments, we used the methods previously described in detail by Arunrungvichian K., et al., 2015, in which they produced pharmacological amnesia using scopolamine in a mouse model. […] All compounds were administered by intraperitoneal injection in a volume of 5 mL/kg. Saline solution was used for the vehicle group (SH).
# We use the maze used in the spontaneous alternation tests except for the use of a partition to close one of three arms. Here, mice, throughout multiple arm entries, should tend to enter a less recently visited arm or an unfamiliar arm of the maze. The mice were injected with compound 1, SH, DZ, and scopolamine (1 h and 30 min) before starting experiments. Each mouse was placed at the end of one arm and allowed to move freely for 5 min to get familiar with the two open arms. All arms were opened after 30 min of resting to allow entering in all three arms. An entry was counted if mice accessed an arm at least 10 cm. The percentage of unfamiliar arm exploration was calculated as Equation (2):(2) Percentage of unfamiliar arm exploration=number of unfamiliar arm entry/number of all arms entry×100
# male ICR mice [2] = experiment: Novel Object Recognition (NOR) test, scopolamine-induced amnesia; assay type: in vivo, mouse; settings: for effect on episodic short-term memory (DI vs amnesic group): donepezil 1 mg/kg, oxazolone (1) 5, 10, 25 and 100 μmol/kg, i.p.; for Discrimination Index (DI): scopolamine-treated mice, n = 5, mean ± SE
# Procedure: as §1, §2
# We employed the Novel Object Recognition Test (NOR) to assess recognition memory, a valuable tool for evaluating cognitive impairment in rodents and testing the impact of new drugs on cognition. This test involves an open-field arena containing two distinct types of objects, each with unique colors and shapes for easy discrimination. The basis of this test lies in rodents’ natural inclination to spend more time exploring a new object compared to a familiar one, leading to the calculation of a Discrimination Index (DI).
# The testing procedure unfolded as follows: On the first day, the mice were allowed to freely explore the open-field apparatus for 5 min to become accustomed to the environment. On the second day, oxazolone 1, DZ, and SH were administered 1 h prior, while SC was given 30 min before the acquisition trial. During this trial, the mice were introduced to the apparatus with two identical objects. After spending 10 min in their cages, one of the objects was replaced with a new one, and the mice were granted 5 min to explore these objects during the retention trial. We meticulously recorded the time the mice spent exploring each object, defined as when their noses approached within 3 cm or when they made contact with the objects. The DI was calculated as (TN – TF)/(TN + TF), with TN representing the exploration time of the new object and TF indicating the exploration time of the familiar object.
# [3] = biological target: T1, human acetylcholinesterase (hAChE) (Homo sapiens, UniProt P22303); experiment: hAChE inhibitory screening (Ellman method); assay type: biochemical; settings: n = 3
# T1 construct: purchased Sigma Aldrich; host or cells: HEK 93 cells (so in the source)
# Procedure: (§3) Recombinant hAChE expressed in HEK 93 cells, a lyophilized powder (Sigma Aldrich, Mexico), was dissolved in TBSA/sodium azide 0.02% and then was stored in aliquots at −20 °C. Each aliquot was diluted as required in a solution of PBS 0.1M pH 7.4/BSA 0.01% on the day of the experiment.
# The spectrophotometric method of Ellman was used to evaluate the inhibition of hAChE. The assay was carried out by double beam UV-Vis 6705 Janway spectrophotometer at room temperature, using optical polystyrene cuvettes of 1.0 cm path length (10 × 10 × 45 mm, 340–800 nm optical transparency). Each test compound was dissolved in ethanol. […] Aliquots of 970 μL of PBS 0.1 M pH 7.4/BSA 0.01% containing DTNB (300 μM) and 10 μL of hAChE (0.2 μM) were placed in the polystyrene cuvette. An amount of 10 μL of a stock solution to obtain a final concentration of 100 or 300 μM of the tested compound was added. In total, 10 μL of an aqueous solution of acetylthiocoline 10 mM was added to start the reaction. The absorbance of the sample by the generation of the yellow 5-nitro-2-tio-benzoic anion was recorded at 412 nm at room temperature after 1 min. As a control, an identical enzyme solution without the inhibitor was processed following the same protocol to determine 100% of enzyme activity. […] Each experiment was repeated at least in triplicate. The capacity of each compound to inhibit hAChE was expressed as percent inhibition calculated using Equation (1):(1) Inhibition(%)=Ac−Ai×100/Ac where Ac and Ai represent the change in the absorbance in the […], respectively.
# [4] = biological target: T1, human acetylcholinesterase (hAChE); experiment: Kinetic determinations of reversible hAChE inhibition (Ellman assay); assay type: biochemical; settings: for Ki: room temperature, 0.1 M PBS pH 7.4, n = 3, read-out: Inhibition Constant (Ki); for Parameter α: α of Vmax and Km referred to control AChE activity, mixed model inhibition; for decrease in inhibition potency compared to (1): from Ki values
# Procedure: as §3
# Reversible inhibition assays from all hAChE were measured using a spectrophotometric Ellman assay at room temperature in 0.1 M PBS pH 7.4, containing 0.01% BSA, containing DTNB 300 µM as a chromogen. The equilibrium dissociation constant (Ki) of the hAChE–oxazolone conjugate was determined using different substrate concentrations (s) ranging from 0.05 to 0.200 mM, and at least four different concentrations of the oxazolones (i) were applied at a given substrate concentration in order to obtain hAChE inhibition between 20% and 80% to establish the affinity for each hAChE–oxazolone conjugate combination. The enzyme activity (ν) was plotted versus the substrate concentration [S] analyzed by non-linear regression analysis (Michaelis–Menten plot); data were transformed into a double reciprocal Lineweaver–Burk plot. Plots 1/ν versus 1/[S] were generated by plotting the slope versus the oxazolone concentration and the ordinate versus the oxazolone concentration of the primary plot. The processing of experimental data to define the oxazolones affinity was performed by a linear regression analysis where the y-intercept determines the enzyme-inhibitor dissociation constants (Ki), while the x-intercept determines the enzyme-substrate dissociation constant (Ks). The equation was used assuming that the substrate, due to low substrate concentrations used in experiments, binds only to the catalytic site, while the inhibitor can bind to both sites, catalytic and peripheral. To determine the mechanism of inhibition, we used the dose-response curves fitted using the Mixed Model Inhibition by the constants Vmax and Km calculated from Michaelis–Menten kinetics that includes competitive, uncompetitive, and non-competitive inhibition as special cases. The GraphPad Prims 6.0 software, San Diego, CA, USA was used to calculate the kinetics. All data are shown as means of n = 3.
# [5] = biological target: T1, human acetylcholinesterase (hAChE); experiment: Estimation of IC50 values on hAChE (Ellman, 96-microwell plates); assay type: biochemical; settings: room temperature, 0.1 M PBS pH 7.4; n = 3
# Procedure: as §3
# The concentrations of test compounds that inhibited the hydrolysis of substrates by 50% (IC50) were determined by monitoring the effect of various concentrations of oxazolones in the assays on the inhibition values. To study the potency, the oxazolones with an inhibition greater than 50% were selected, taken from the screening test results at 300 μM. All the inhibition studies were performed at room temperature in 96-microwell plates using Multiskan FC 5111900 (Lab Systems, CA, USA). The DTNB was used for the measurement of hAChE activity. In total, 174 μL in 0.1 M PBS pH 7.4/0.01% BSA, containing 300 μM DTNB final concentration, 2 μL of test-compound solution, and 2 μL of hAChE solution (0.2 μM) were mixed. The reaction was then initiated by adding 2 μL acetylthiocholine (10 mM), and the plate was read immediately. The formation of yellow 2-nitro-5-tiobenzoico acid due to the reaction of DTNB with thiocholine monitored the enzymatic hydrolysis of acetylthiocholine. Measures were at a wavelength of 412 nm at room temperature after 1 min. The IC50 values were then calculated using the GraphPad Prism 6.0 software (San Diego, CA, USA). All data are shown as means of n = 3.
# male ICR mice [6] = experiment: Y-maze spontaneous alternation test; assay type: in vivo, mouse; settings: 1 h before, 8 min in Y-maze, n = 5, mean ± SE
# Procedure: as §1, §2
# T1 sequence (P22303 32-614): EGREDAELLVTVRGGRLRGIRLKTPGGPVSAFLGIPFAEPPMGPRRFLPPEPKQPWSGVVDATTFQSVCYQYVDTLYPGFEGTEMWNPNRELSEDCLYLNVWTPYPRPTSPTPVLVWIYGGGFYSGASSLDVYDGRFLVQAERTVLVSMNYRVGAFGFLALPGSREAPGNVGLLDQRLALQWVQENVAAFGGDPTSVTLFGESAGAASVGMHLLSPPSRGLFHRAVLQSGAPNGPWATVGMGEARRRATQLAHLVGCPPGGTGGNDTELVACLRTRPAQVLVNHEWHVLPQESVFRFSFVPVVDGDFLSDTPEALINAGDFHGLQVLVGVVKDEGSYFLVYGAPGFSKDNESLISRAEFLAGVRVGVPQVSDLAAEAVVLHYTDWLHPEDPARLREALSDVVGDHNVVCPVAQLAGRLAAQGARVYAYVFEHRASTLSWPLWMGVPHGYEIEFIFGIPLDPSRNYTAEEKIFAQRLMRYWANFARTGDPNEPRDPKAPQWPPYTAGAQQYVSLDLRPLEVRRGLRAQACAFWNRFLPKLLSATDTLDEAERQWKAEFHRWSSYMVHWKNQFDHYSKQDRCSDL
SMILES,Mode of Inhibition [4],Ki [4] [µM],Parameter α [4],IC50 [5] [µM],also measured
"COc1cc2c(cc1OC)C(=O)C(CC1CCN(Cc3ccccc3)CC1)C2 (centres unmarked) [Donepezil, donepezil, reference compound]",–,–,–,–,"effect on cognitive decline induced by scopolamine (novel arm exploration) (male ICR mice [1]; 1 mg/kg i.p., p < 0.001 vs scopolamine group): notably reversed; effect on episodic short-term memory (DI vs amnesic group) (male ICR mice [2]): substantially improved episodic short-term memory"
"O=C1OC(/C=C/c2ccccc2)=NC/1=C\c1ccccc1 [Oxazolone 1, 4-((Z)-benzylidene)-2-((E)-styryl)oxazol-5(4H)-one]",Competitive,2.08 ± 0.36,21.84,9.2 ± 2.3,"inhibition at 100 µM ([3]; 100 μM compound): 61.3%; locomotor activity, number of arm entries (male ICR mice [6]; 5 μmol/kg i.p.): 31.8 ± 2.1 entries; locomotor activity, number of arm entries (male ICR mice [6]; 50 μmol/kg i.p.): 34 ± 2.3 entries; Percentage of unfamiliar arm exploration (male ICR mice [1]; 25 μmol/kg i.p., scopolamine-treated mice, mean ± SE): 37.83 ± 0.7%; Percentage of unfamiliar arm exploration (male ICR mice [1]; 100 μmol/kg i.p., scopolamine-treated mice, mean ± SE): 48.30 ± 5.4%; Discrimination Index (DI) (male ICR mice [2]; 10 μmol/kg i.p.): 0.317 ± 0.051; Discrimination Index (DI) (male ICR mice [2]; 100 μmol/kg i.p.): 0.360 ± 0.056; effect on episodic short-term memory (DI vs amnesic group) (male ICR mice [2]): substantially improved episodic short-term memory"
"Cc1ccc(/C=C2N=C(/C=C/c3ccccc3)OC\2=O)cc1 [Oxazolone 2, 4-((Z)-4-methylbenzylidene)-2-((E)-styryl)oxazol-5(4H)-one]",Competitive,108 ± 7.77,4.98,95.5 ± 1.47,–
"O=C1OC(/C=C/c2ccccc2)=NC/1=C\c1ccc(Cl)cc1 [Oxazolone 3, 4-((Z)-4-chlorobenzylidene)-2-((E)-styryl)oxazol-5(4H)-one]",Competitive,98.4 ± 24,>1000,89.3 ± 22.3,Inhibition (%) of hAChE ([3]; 100 μM compound): inactive; Inhibition (%) of hAChE ([3]; 300 μM compound): moderate inhibitory activity
"COc1ccc(/C=C2N=C(/C=C/c3ccccc3)OC\2=O)cc1 [Oxazolone 4, 4-((Z)-4-methoxybenzylidene)-2-((E)-styryl)oxazol-5(4H)-one]",Competitive,157 ± 46,4.16,137 ± 34.2,inhibition at 100 µM ([3]; 100 μM compound): 49%
"CC(=O)Oc1cccc(/C=C2N=C(/C=C/c3ccccc3)OC\2=O)c1 [Oxazolone 5, 3-((Z)-(5-oxo-2-((E)-styryl)oxazol-4(5H)-ylidene)methyl)phenyl acetate]",Non-competitive,183 ± 46,1,204 ± 39.7,–
"CC(=O)Oc1ccc(/C=C2N=C(/C=C/c3ccccc3)OC\2=O)cc1 [Oxazolone 6, 4-((Z)-(5-oxo-2-((E)-styryl)oxazol-4(5H)-ylidene)methyl)phenyl acetate]",uncompetitive,198 ± 49.5,0.006,246 ± 51.2,decrease in inhibition potency compared to (1) [4]: approximately 100 fold
"CC(=O)Oc1cccc(/C=C2N=C(/C=C/c3ccccc3)OC\2=O)c1O [Oxazolone 7, 2-hydroxy-3-((Z)-(5-oxo-2-((E)-styryl)oxazol-4(5H)-ylidene)methyl)phenyl acetate]",Competitive,67 ± 19,18.27,37.1 ± 1.61,decrease in inhibition potency compared to (1) [4]: roughly 33 fold
"CN1[C@@H]2C[C@@H](OC(=O)[C@H](CO)c3ccccc3)C[C@H]1[C@@H]1O[C@@H]12 [scopolamine, reference compound]",–,–,–,–,"Percentage of unfamiliar arm exploration (male ICR mice [1]; scopolamine group, 1 mg/kg i.p. 30 min before): 28.58 ± 5%"

# Reference: paper PMC10649417, “Inhibitory Activity of 4-Benzylidene Oxazolones Derivatives of Cinnamic Acid on Human Acetylcholinesterase and Cognitive Improvements in a Mouse Model” (Molecules, 2023)
